Results reported in PubChem BioAssay (NCI).
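Dose response: 5 concentrations. Exposure: 48 h. Format: 96-well plates. Endpoint: linear interpolation; highest concentration if not reached. At the TGI there is no net growth.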

Assays:
Experiment in all cases: NCI anticancer screen, dose series, 48 h
SNB-75 CNS = system: SNB-75 CNS
NCI/ADR-RES ovarian = system: NCI/ADR-RES ovarian
PC-3 prostate = system: PC-3 prostate
KM12 colon = system: KM12 colon
ACHN renal = system: ACHN renal
SK-MEL-5 melanoma = system: SK-MEL-5 melanoma
CAKI-1 renal = system: CAKI-1 renal
T-47D breast = system: T-47D breast
A549 NSCLC = system: A549 NSCLC
SK-MEL-2 melanoma = system: SK-MEL-2 melanoma

Structure (SMILES) | TGI (SNB-75 CNS) [µM] | TGI (NCI/ADR-RES ovarian) [µM] | TGI (PC-3 prostate) [µM] | TGI (KM12 colon) [µM] | TGI (ACHN renal) [µM] | TGI (SK-MEL-5 melanoma) [µM] | TGI (CAKI-1 renal) [µM] | TGI (T-47D breast) [µM] | TGI (A549 NSCLC) [µM] | TGI (SK-MEL-2 melanoma) [µM]
CCN(CC)c1ccc(NC(=S)NN(C)C)cc1 | > 10 | > 10 | > 10 | > 10 | > 10 | > 10 | > 10 | > 10 | > 10 | > 10
CCCCN1C(=O)CC2[C@@H]3CCc4cc(OC)ccc4C3CC[C@]2(C)C1=O (stereo partly drawn) | > 10 | > 10 | > 10 | > 10 | > 10 | > 10 | > 10 | > 10 | > 10 | > 10
CC1(C)OC[C@@H](C[C@H](O)COCc2ccccc2)O1 | > 100 | > 100 | > 100 | > 100 | > 100 | > 100 | > 100 | > 100 | > 100 | > 100
COc1ccc(C2=C(Cl)C(=O)O/C2=C\c2ccc(OC)c(Br)c2)cc1Cl | > 100 | 88.6 | > 100 | > 100 | 40.2 | > 100 | > 100 | > 100 | > 100 | 60.2
NC(Cc1[nH]nc2ccccc12)C(=O)O (stereo not drawn) | > 100 | > 100 | > 100 | > 100 | > 100 | > 100 | > 100 | > 100 | > 100 | > 100
Cc1nnc2n1-c1ccccc1N(Cc1ccccc1)CC2 | > 100 | 69.2 | > 100 | > 100 | > 100 | > 100 | > 100 | > 100 | > 100 | > 100
NCCN(CCN(C(=O)Nc1ccccc1)c1ccccc1)C(=O)Nc1ccccc1 | 45.4 | > 100 | 90.3 | – | 59.9 | 43.1 | – | 90.8 | > 100 | 45.2
Cc1cc(S(=O)(=O)Nc2n[nH]c(Nc3ccccc3)n2)c(SCC(=O)O)cc1Cl | > 100 | > 100 | > 100 | > 100 | > 100 | > 100 | > 100 | > 100 | > 100 | > 100
Nc1nncc2[nH]cnc12 | > 100 | > 100 | > 100 | > 100 | > 100 | > 100 | > 100 | > 100 | > 100 | > 100
NCCCCNCCCNC(=O)CNC(=O)CC(O)C(N)CCCC(NC(=O)C(CN)NC(=O)C(O)CNC(=O)CC(N)c1ccc(O)cc1)C(=O)O (stereo not drawn) | > 10 | > 10 | > 10 | > 10 | > 10 | > 10 | > 10 | > 10 | > 10 | > 10
Cc1ccc(C(=O)Cc2nc3c([nH]c2=O)c(C)nn3-c2ccccc2)c(C)c1 | 3.46 | > 10 | > 10 | > 10 | > 10 | > 10 | > 10 | > 10 | > 10 | –
CCCCCCCCCCCCNC(=O)CCC(NC(=O)c1ccc(N(C)Cc2cnc3nc(N)nc(N)c3n2)cc1)C(=O)NCCCCCCCCCCCC (stereo not drawn) | 20.8 | > 100 | > 100 | > 100 | > 100 | > 100 | – | 61.5 | > 100 | > 100
Cc1ccc(S(=O)(=O)c2c(O)c3ccc(O)c(C)c3oc2=O)cc1 | > 100 | > 100 | > 100 | > 100 | > 100 | > 100 | > 100 | > 100 | > 100 | > 100
C#CCOCC12C=CC(O1)C1COC(=O)C12 (stereo not drawn) | > 100 | > 100 | > 100 | > 100 | > 100 | > 100 | > 100 | > 100 | > 100 | –
O=C1CS/C(=N/N=C/c2cn(Cc3ccc(Cl)cc3Cl)c3ccccc23)N1 | 54.4 | > 100 | 76.8 | > 100 | > 100 | > 100 | > 100 | > 100 | > 100 | 74.7
C[n+]1c(-c2ccc(NC(=O)c3ccc(C(=O)Nc4ccc(-c5cn6ccccc6[n+]5C)cc4)cc3)cc2)cn2ccccc21 | > 100 | > 100 | > 100 | > 100 | > 100 | > 100 | > 100 | > 100 | > 100 | > 100
Cc1nc(SCC(N)=O)c2sc(=S)n(-c3ccccc3)c2n1 | > 10 | > 10 | > 10 | > 10 | > 10 | > 10 | > 10 | > 10 | > 10 | > 10
O=C1/C(=C/c2ccncc2)C(n2cccc2)c2c(Br)sc(Br)c21 (stereo not drawn) | 9.79 | 51.2 | 16.1 | 24.7 | 17.1 | 27.6 | 10.9 | 16.4 | 34.5 | 6.56
CN(C)CCCNc1cc(O)c2c(c1O)C(=O)c1ccccc1C2=O | – | 15.5 | 27.5 | 21.7 | 27.5 | 26.5 | 25.7 | 36.5 | 23.9 | 35.7
N#Cc1ccc(-c2nc(C#N)c(N)o2)cc1 | > 10 | > 10 | > 10 | > 10 | > 10 | > 10 | > 10 | > 10 | > 10 | –
O=C(Sc1c(-c2ccccc2)c(=O)n(-c2ccccc2)c(=S)n1-c1ccccc1)c1ccco1 | > 100 | > 100 | > 100 | > 100 | > 100 | > 100 | > 100 | > 100 | > 100 | > 100
